Source: patent US20250161299A1, “ORAL PCLX-001 IN THE TREATMENT OF HUMAN CANCER” (PACYLEX PHARMACEUTICALS INC., priority 2022, published 2025)
Entries after “also recorded” stand apart in the source; their conditions may differ. Like-named read-outs stand apart in the source and are kept apart here.

Assay: Phase I trial of oral PCLX-001: plasma pharmacokinetics, noncompartmental analysis (Phoenix WinNonlin 8.3)
Type: in vivo, human
Settings: for half-life / Tmax / AUC(0-inf) / Cmax / AUC(0-t): human, plasma, po; for half-life: read-out: Half-life (converted); for Tmax: read-out: Tmax; for AUC(0-t): read-out: AUClast or AUCtau
Description: The clinical trial is entitled “Phase I Trial of PCLX-001 in B-cell Non-Hodgkin Lymphoma and Advanced Solid Malignancies” and registered at clinicaltrials.gov as NCT04836195. It is a phase I dose-escalation study of oral PCLX-001, conducted in a multicenter, non-randomized, open-label, non-controlled design. The study is comprised of two parts: Part A (single-agent dose escalation) and Part B (single-agent expansion cohorts).
Patients are to receive daily oral PCLX-001 on 28-day cycles, beginning with a starting dose of 20 mg.
[…] After dosing, the blood samples (volumes 3 mL) were serially collected into heparinized tubes from a right forearm butterfly cannula. All blood fluid specimens were frozen and later assayed using a validated UHPLC-MS detection method.
Noncompartmental pharmacokinetic analysis was performed using Phoenix WinNonlin 8.3 using trapezoidal rule and linear up log down methodology. WinNonlin was allowed to pick optimal terminal phases.
Nonparametric superposition was performed using Phoenix WinNonlin Nonparametric Superposition to predict steady state data based upon Day 1 data for each patient. It utilized the 8- and 24-hour time points for estimation of terminal phase for the purposes of this exercise. We simulated 20 mg daily oral dosing and simulations were conducted out to steady state. Results are show in FIGS. 5, 6, and 7.
In the non-compartmental analysis, Phoenix WinNonlin 8.3 trapezoidal rule was used, with linear up log down method. This allowed WinNonlin to pick optimal terminal phase (WinNonlin will accept Rsq adjusted to >0.7). Additional analysis to assess adequate fie included visual inspection of data, and AUCextrap should be <15%.
Phoenix WinNonlin 8.3 trapezoidal rule. Used linear up log down method. Allowed WinNonlin to pick optimal terminal phase (WinNonlin will accept Rsq adjusted >0.7).
Other analysis to assess adequate fit. Visual inspection of data. AUCextrap should be <15%.

[1] = 20 mg, Table 1A, Patient 115-002-004 (Patient 3), Day 15, 20 mg oral daily
[2] = 20 mg, Table 6, Patient 115-002-001, Day 1, 20 mg QD oral, Pantoprazole No
[3] = 20 mg, Table 6, Patient 115-002-001, Day 15, 20 mg QD oral, Pantoprazole No
[4] = 20 mg, Table 6, Patient 115-002-002, Day 1, 20 mg QD oral, Pantoprazole No
[5] = 20 mg, Table 6, Patient 115-002-002, Day 15, 20 mg QD oral, Pantoprazole No
[6] = 20 mg, Table 6, Patient 115-002-004, Day 1, 20 mg QD oral, Pantoprazole No
[7] = 20 mg, Table 6, Patient 115-002-004, Day 15, 20 mg QD oral, Pantoprazole No
[8] = 40 mg, Table 7, Patient 115-002-005, Day 1, 40 mg QD oral, Pantoprazole Yes
[9] = 40 mg, Table 7, Patient 115-002-005, Day 15, 40 mg QD oral, Pantoprazole Yes
[10] = 40 mg, Table 7, Patient 115-002-006, Day 1, 40 mg QD oral, Pantoprazole Yes
[11] = 40 mg, Table 7, Patient 115-002-006, Day 15, 40 mg QD oral, Pantoprazole Yes
[12] = 40 mg, Table 7, Patient 115-009-001, Day 1, 40 mg QD oral, Pantoprazole No
[13] = 40 mg, Table 7, Patient 115-009-001, Day 15, 40 mg QD oral, Pantoprazole No
[14] = 70 mg, Table 8, Patient 115-002-007, Day 1, 70 mg QD oral, Pantoprazole Yes
[15] = 70 mg, Table 8, Patient 115-002-007, Day 15, 70 mg QD oral, Pantoprazole Yes
[16] = 70 mg, Table 8, Patient 115-002-008, Day 1, 70 mg QD oral, Pantoprazole Yes
[17] = 70 mg, Table 8, Patient 115-002-008, Day 15, 70 mg QD oral, Pantoprazole Yes
[18] = 70 mg, Table 8, Patient 115-024-001, Day 1, 70 mg QD oral, Pantoprazole No
[19] = 70 mg, Table 8, Patient 115-024-001, Day 15, 70 mg QD oral, Pantoprazole No
[20] = 100 mg, Table 9, Patient 115-002-009, Day 1, 100 mg QD oral, Pantoprazole No
[21] = 100 mg, Table 9, Patient 115-002-010, Day 1, 100 mg QD oral, Pantoprazole No
[22] = 100 mg, Table 9, Patient 115-002-011, Day 1, 100 mg QD oral, Pantoprazole No
[23] = 100 mg, Table 9, Patient 115-002-011, Day 15, 100 mg QD oral, Pantoprazole No
[24] = 100 mg, Table 9, Patient 115-002-012, Day 1, 100 mg QD oral, Pantoprazole No
[25] = 100 mg, Table 9, Patient 115-002-012, Day 15, 100 mg QD oral, Pantoprazole No
[26] = 140 mg, Table 10, Patient 115-002-006, Day 1, Dose 140 mg QD oral, Concomitant Pantoprazole No
[27] = 140 mg, Table 10, Patient 115-002-006, Day 15, Dose 140 mg QD oral, Concomitant Pantoprazole No
[28] = 140 mg, Table 10, Patient 115-024-005, Day 1, Dose 140 mg QD oral, Concomitant Pantoprazole Yes
[29] = 140 mg, Table 10, Patient 115-024-005, Day 15, Dose 140 mg QD oral, Concomitant Pantoprazole Yes
[30] = 140 mg, Table 10, Patient 115-024-013, Day 1, Dose 140 mg QD oral, Concomitant Pantoprazole Yes
[31] = 140 mg, Table 10, Patient 115-024-013, Day 15, Dose 140 mg QD oral, Concomitant Pantoprazole Yes

## Cc1c(NS(=O)(=O)c2c(Cl)cc(-c3ccnc(N4CCNCC4)c3)cc2Cl)c(CC(C)C)nn1C [PCLX-001, 2,6-dichloro-N-(3-isobutyl-1,5-dimethyl-1H-pyrazol-4-yl)-4-(2-(piperazin-1-yl)pyridin-4-yl)benzene sulfonamide]
[1]
  half-life: 6.86 h
  Tmax: 0.5 h
[2]
  AUC(0-inf): 2030 ng·h/mL
  Cmax: 360 ng/mL
  AUC(0-t): 1720 ng·h/mL
  half-life: 8.34 h
  Tmax: 1 h
[3]
  AUC(0-inf): 3600 ng·h/mL
  Cmax: 479 ng/mL
  AUC(0-t): 2750 ng·h/mL
  half-life: 10.9 h
  Tmax: 1 h
[4]
  Cmax: 142 ng/mL
  AUC(0-t): 1300 ng·h/mL
  Tmax: 4 h
[5]
  AUC(0-inf): 2440 ng·h/mL
  Cmax: 243 ng/mL
  AUC(0-t): 2010 ng·h/mL
  half-life: 9.42 h
  Tmax: 2 h
[6]
  AUC(0-inf): 1880 ng·h/mL
  Cmax: 326 ng/mL
  AUC(0-t): 1780 ng·h/mL
  half-life: 5.51 h
  Tmax: 2 h
[7]
  AUC(0-inf): 2110 ng·h/mL
  Cmax: 356 ng/mL
  AUC(0-t): 1900 ng·h/mL
  half-life: 6.47 h
  Tmax: 0.5 h
[8]
  AUC(0-inf): 4900 ng·h/mL
  Cmax: 868 ng/mL
  AUC(0-t): 4430 ng·h/mL
  half-life: 7.5 h
  Tmax: 0.5 h
[9]
  AUC(0-inf): 7060 ng·h/mL
  Cmax: 802 ng/mL
  AUC(0-t): 6680 ng·h/mL
  half-life: 5.54 h
  Tmax: 2 h
[10]
  Cmax: 7.13 ng/mL
  AUC(0-t): 79.6 ng·h/mL
  Tmax: 4 h
[11]
  Cmax: 40.8 ng/mL
  AUC(0-t): 175 ng·h/mL
  Tmax: 4 h
[12]
  AUC(0-inf): 12600 ng·h/mL
  Cmax: 1670 ng/mL
  AUC(0-t): 10100 ng·h/mL
  half-life: 10.8 h
  Tmax: 1 h
[13]
  AUC(0-inf): 18300 ng·h/mL
  Cmax: 1480 ng/mL
  AUC(0-t): 13700 ng·h/mL
  half-life: 11.9 h
  Tmax: 2 h
[14]
  Cmax: 158 ng/mL
  AUC(0-t): 1960 ng·h/mL
  Tmax: 4 h
[15]
  Cmax: 602 ng/mL
  AUC(0-t): 8130 ng·h/mL
  Tmax: 4 h
[16]
  Cmax: 408 ng/mL
  AUC(0-t): 4550 ng·h/mL
  Tmax: 8 h
[17]
  Cmax: 170 ng/mL
  AUC(0-t): 3380 ng·h/mL
  Tmax: 8 h
[18]
  Cmax: 1430 ng/mL
  AUC(0-t): 9400 ng·h/mL
  half-life: 9.44 h
  Tmax: 1 h
[19]
  Cmax: 629 ng/mL
  AUC(0-t): 7300 ng·h/mL
  Tmax: 4 h
[20]
  AUC(0-inf): 15400 ng·h/mL
  Cmax: 1740 ng/mL
  AUC(0-t): 14800 ng·h/mL
  half-life: 5.02 h
  Tmax: 2 h
[21]
  AUC(0-inf): 22400 ng·h/mL
  Cmax: 2490 ng/mL
  AUC(0-t): 20000 ng·h/mL
  half-life: 7.17 h
  Tmax: 2 h
[22]
  AUC(0-inf): 16200 ng·h/mL
  Cmax: 1650 ng/mL
  AUC(0-t): 13200 ng·h/mL
  half-life: 9.6 h
  Tmax: 2 h
[23]
  Cmax: 1160 ng/mL
  AUC(0-t): 17900 ng·h/mL
  Tmax: 4 h
[24]
  Cmax: 1210 ng/mL
  AUC(0-t): 12600 ng·h/mL
  Tmax: 4 h
[25]
  AUC(0-inf): 19400 ng·h/mL
  Cmax: 1530 ng/mL
  AUC(0-t): 17000 ng·h/mL
  half-life: 7.56 h
  Tmax: 2 h
[26]
  AUC(0-inf): 24200 ng·h/mL
  Cmax: 2710 ng/mL
  AUC(0-t): 21200 ng·h/mL
  half-life: 7.91 h
  Tmax: 0.5 h
[27]
  AUC(0-inf): 41900 ng·h/mL
  Cmax: 2200 ng/mL
  AUC(0-t): 26000 ng·h/mL
  half-life: 16.4 h
  Tmax: 2 h
[28]
  AUC(0-inf): 4160 ng·h/mL
  Cmax: 406 ng/mL
  AUC(0-t): 3630 ng·h/mL
  half-life: 7.56 h
  Tmax: 1 h
[29]
  AUC(0-inf): 7180 ng·h/mL
  Cmax: 295 ng/mL
  AUC(0-t): 4320 ng·h/mL
  half-life: 17.4 h
  Tmax: 2 h
[30]
  AUC(0-inf): 11500 ng·h/mL
  Cmax: 2190 ng/mL
  AUC(0-t): 10900 ng·h/mL
  half-life: 5.86 h
  Tmax: 1 h
[31]
  AUC(0-inf): 14300 ng·h/mL
  Cmax: 1510 ng/mL
  AUC(0-t): 11000 ng·h/mL
  half-life: 10.1 h
  Tmax: 1 h
Patients 1, 2 and 3, 20 mg oral daily
  peak plasma concentrations versus concentrations active in cultured cells: exceeded those needed to suppress cultured human cancer cell growth
Patients 1, 2 and 3, 20 mg oral daily, versus allometric scaling from mice, rats, dogs
  trough plasma concentrations (immediately prior to dosing on day 2, 15, and 22): higher than anticipated
Patients taking pantoprazole vs not
  effect of pantoprazole on systemic exposure / oral absorption: lower in patients taking pantoprazole; also recorded: reduces oral absorption
